Entries after “also recorded” stand apart in the source; their conditions may differ.
Tests used:
[1] = Intact ester in blood and urine after oral administration to human volunteers; format: in vivo; conditions: urine, read-out: ester present in urine
[2] = Oral absorption in fasting human volunteers (syrup): serum ticarcillin, AUC and urinary excretion by bio-assay, Experiments A-D; format: in vivo
Experimental: To obtain the results shown in table 1, the two esters of ticarcillin were each given to a panel of fasting human volunteers in a syrup formulation in an amount equivalent to provide either 200 or 400 mg (as stated in table 1) of the free ticarcillin after the expected in vivo hydrolysis. Periodic blood samples were taken from the volunteers and each assayed for ticarcillin content by a standard bio-assay technique. The urine excreted by each volunteer within the 6 hours following administration was also collected and assayed for the free ticarcillin. All three parameters (viz the urinary excretion level, the peak serum concentration achieved and the total area under the curve when the serum concentration is plotted against time) are indications of the minimum degree to which the penicillin ester has been absorbed after oral administration and then hydrolysed in vivo.

[3] = in words; cited from earlier work
[4] = Oral administration as syrup equivalent to 400 mg ticarcillin, phenyl vs p-tolyl ester (data of British Pat. No. 1,455,529); format: in vivo, man
Description: The improved bioavailability can also be seen from the individual mean serum concentration figures in table 1. […] This can be seen by the comparison with the phenyl ester and for convenience the data from specification No. 1,455,529 is repeated in table 3 below:
(Administration as syrup containing equivalent

| SMILES | dose excreted at 6 h [1] | urinary recovery of ticarcillin compared to the phenyl ester ([2]; in words) | bioavailability of ticarcillin after oral administration compared to the phenyl ester ([2]; in words, AUC, listed as α-ortho-tolyl ester) | bioavailability as measured by AUC higher than for the phenyl ester ([2]; o-tolyl vs phenyl ester, oral, man, overall) | oral absorption in man [3] | oral absorption compared to the ortho ester ([4]; in words, p-tolyl vs α-ortho ester) | statistical significance of differences in mean serum concentrations ([4]; p-tolyl vs phenyl ester, table 3) |
| --- | --- | --- | --- | --- | --- | --- | --- |
| Cc1ccccc1OC(=O)C(C(=O)N[C@@H]1C(=O)N2[C@@H]1SC(C)(C)[C@@H]2C(=O)O)c1ccsc1 (stereo partly drawn) [o-tolyl, 6β-[2-(2'-methylphenoxycarbonyl)-2-thien-3'-ylacetamido]penicillanic acid] | ~2% | greater urinary recovery | considerably greater; also recorded: two- to three-fold greater | 120-220% |  |  |  |
| CC1(C)S[C@@H]2[C@H](NC(=O)C(C(=O)Oc3ccccc3)c3ccsc3)C(=O)N2[C@H]1C(=O)O (stereo partly drawn) [phenyl, α-phenyl ester of α-carboxy-3-thienylmethyl penicillin, reference compound] | ~1% |  |  |  |  |  |  |
| Cc1ccc(OC(=O)C(C(=O)N[C@@H]2C(=O)N3[C@@H]2SC(C)(C)[C@@H]3C(=O)O)c2ccsc2)cc1 (stereo partly drawn) [p-tolyl, α-para-tolyl mono-ester of α-carboxy-3-thienylmethyl penicillin] |  |  |  |  | high degree of oral absorption in man | much less well absorbed | not statistically significant |
